Source: PubChem BioAssay (NCI)
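The compound was tested at five concentrations on cells cultured in 96-well plates, with a 48-hour exposure period. GI50 marks 50% less growth. TGI: concentration producing complete growth inhibition.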

Columns and labels:
Assay in all cases: NCI anticancer screen, dose series, 48 h
[1] = system: 786-0 renal
[2] = system: HCC-2998 colon
[3] = system: HOP-92 NSCLC
[4] = system: HT29 colon
[5] = system: NCI-H226 lung
[6] = system: PC-3 prostate
[7] = system: SK-MEL-5 melanoma
[8] = system: TK-10 renal
[9] = system: UACC-257 melanoma
[10] = system: SR leukemia

Compound | GI50 [1] [µM] | TGI [1] [µM] | GI50 [2] [µM] | TGI [2] [µM] | GI50 [3] [µM] | TGI [3] [µM] | GI50 [4] [µM] | TGI [4] [µM] | GI50 [5] [µM] | TGI [5] [µM] | GI50 [6] [µM] | TGI [6] [µM] | GI50 [7] [µM] | TGI [7] [µM] | GI50 [8] [µM] | TGI [8] [µM] | GI50 [9] [µM] | TGI [9] [µM] | TGI [10] [µM] | GI50 [10] [µM]
COc1cc(/C=C2\C[C@H]3[C@@H]4CC=C5C[C@@H](O)CC[C@]5(C)[C@H]4CC[C@]3(C)[C@H]2O)ccc1OCCN1CCCC1 | 6.16 | 16 | 10.1 | 20.6 | 8.26 | 17.1 | 13.2 | > 50 | 9.55 | 22.3 | 7.4 | 15.1 | 9.58 | 23.6 | 11.7 | 24.3 | 9.89 | 19.8 |  | 
COC(=O)C(Cc1nc2ccccc2[nH]c1=O)/C(=N\NC(C)(C)C)C(=O)Nc1c(C)cc(Br)cc1C (centres undefined) |  | 34.4 |  | > 100 |  | 45.5 |  | > 100 |  | 54.4 |  |  |  | 55.3 |  |  |  | > 100 | 76.2 | 
COC1=CC(c2ccc[nH]2)=N/C1=C\c1[nH]c(C)c(CC(=O)OCc2ccccc2)c1CCC(=O)OCc1ccccc1 | 0.376 | 1.53 |  |  | 0.231 | 0.809 | 0.287 | 2.5 | 0.335 | 2.3 | 0.346 | 12.6 |  |  | 0.406 | 2.1 | 0.721 | 3.1 | 0.74 | 0.236
Cc1c(O)c2ccccc2oc1=O |  | > 100 |  | > 100 |  | > 100 |  | > 100 |  | > 100 |  | > 100 |  | > 100 |  |  |  | > 100 | > 100 | 
C[C@]12CCc3nc(Nc4cccc(O)c4)sc3C1=CC[C@@H]1[C@@H]2CC[C@]2(C)/C(=N\NC(N)=S)CC[C@@H]12 | 1.44 | 4.31 | 1.86 | 3.49 | 2.02 | 7.6 | 1.52 | 3.73 | 5.34 | 80.7 | 1.7 | 6.35 | 1.8 | 3.63 | 1.9 | 4.4 | 2.12 | 6.4 |  | 
Nc1cc(F)ccc1CC(=O)O |  | > 100 |  | > 100 |  |  |  | > 100 |  | > 100 |  | > 100 |  | > 100 |  | > 100 |  | > 100 | > 100 | 
COC(=O)C(=O)C(C(=O)C(=O)Nc1cccc(C(C)=O)c1)c1nc2ccc([N+](=O)[O-])cc2[nH]c1=O (centres undefined) |  | > 100 |  | > 100 |  | > 100 |  | > 100 |  | > 100 |  |  |  | > 100 |  | > 100 |  | > 100 | > 100 | 
COC1C(CO)OC(n2c3ccccc3c3c4c(c5c6ccccc6[nH]c5c32)C(=O)NC4=O)C(O)C1O (centres undefined) | 0.0467 | 1.12 | 0.127 | 1.5 | 0.0792 | 1.22 | 0.23 | > 37.7 | 0.0113 | 0.108 | 0.206 | 7.06 | 0.0133 | 0.0608 | 0.143 | 0.548 | 0.103 |  |  | 
CC(=O)Nc1ccccc1-c1nc2ccccc2nc1C |  | > 100 |  |  |  | > 100 |  | > 100 |  | > 100 |  |  |  | > 100 |  | > 100 |  | > 100 | > 100 | 
CC[C@H]1CN2CCc3cc(OC)c(OC)cc3C2C[C@@H]1CC1NCCc2cc(OC)c(OC)cc21 (some centres undefined) |  | 0.128 |  | 0.065 |  | 0.0464 |  | 0.0479 |  | 0.194 |  | 0.275 |  | 0.0928 |  | 0.572 |  | 0.258 |  | 
CCOC(=O)C1SC(=Nc2cccc(Cl)c2C)N=C1C (centres undefined) |  | 31.8 |  | > 10 |  | 30.4 |  | 32.6 |  | 72.6 |  |  |  |  |  | 73.3 |  | > 10 | 61.2 | 
CCC(CC)c1nc(Nc2ccc(C(=O)OC)cc2)c2ccccc2n1 | 10.9 | 26.5 | 8.66 | 17.1 | 18.6 | > 26.4 |  |  | 7.93 | 22.8 | 7.8 | 17.1 | 7.82 | 16.1 | 13.2 | 25.7 | 9.73 | 20 | 26.7 | 10.1
Oc1ccc([Te]CCNCC[Te]c2ccc(O)cc2)cc1 |  | > 100 |  | 38.2 |  |  |  | > 100 |  | 46.4 |  |  |  | 26.4 |  | 90.7 |  | > 100 | > 100 | 
C=CC(=O)NCCSCCCOC1(C(=O)O)CC(O)C(NC(C)=O)C(C(O)C(O)CO)O1 (centres undefined) |  | > 100 |  | > 100 |  | > 100 |  | > 100 |  | > 100 |  |  |  |  |  | > 100 |  | > 100 | > 100 | 
COc1cccc2ccc(C(=O)c3ccccc3)nc12 |  | > 100 |  | > 100 |  |  |  |  |  | > 100 |  |  |  | > 100 |  | > 100 |  |  | > 100 | 
CCCCCCCCOCC(O)COC(C)C (centres undefined) |  | > 100 |  | 58.3 |  | 81.8 |  | > 100 |  | > 100 |  |  |  | > 100 |  | > 100 |  | 72.7 | 40.2 | 
COc1ccc(C(CCC(C)=O)C(=O)O)cc1OC (centres undefined) |  | > 100 |  |  |  | > 100 |  | > 100 |  |  |  |  |  | > 100 |  | > 100 |  | > 100 | > 100 | 
COC(=O)CCC(NC(=S)N/N=C/c1ccccn1)C(=O)OC (centres undefined) |  | > 100 |  | > 100 |  | > 100 |  | > 100 |  | > 100 |  |  |  | > 100 |  | > 100 |  | > 100 | > 100 | 
C[n+]1c(/C=C/c2c[nH]c3ccccc23)ccc2ccccc21 | 14.2 | 30.3 | 10.5 | 23.8 |  |  | 5.06 | 27.5 | 11 | 29.1 | 9.74 | 25.8 | 6.15 | 19.6 |  |  | 12.2 | 25.2 | 30 | 5.84
O=[N+]([O-])c1ccc(C2CC(c3ccccc3Cl)=Nc3ccccc3S2)cc1 (centres undefined) |  | 12.3 |  | 54.2 |  | 29.5 |  | 45.9 |  | 27.9 |  |  |  | 12.8 |  | > 79.1 |  | 35.5 | 5.27 | 
